Test results from BindingDB's records for PubMed 2746503 (Universit&Eacute, 1989).
Several values for one entry are separate records, joined by “and”; a condition that tells them apart may be missing. Equal entries are not always repeated.

Columns and labels:
[1] = target: T1, Muscarinic acetylcholine receptor M2 (Homo sapiens, UniProt P08172)
T1 sequence (P08172 whole entry): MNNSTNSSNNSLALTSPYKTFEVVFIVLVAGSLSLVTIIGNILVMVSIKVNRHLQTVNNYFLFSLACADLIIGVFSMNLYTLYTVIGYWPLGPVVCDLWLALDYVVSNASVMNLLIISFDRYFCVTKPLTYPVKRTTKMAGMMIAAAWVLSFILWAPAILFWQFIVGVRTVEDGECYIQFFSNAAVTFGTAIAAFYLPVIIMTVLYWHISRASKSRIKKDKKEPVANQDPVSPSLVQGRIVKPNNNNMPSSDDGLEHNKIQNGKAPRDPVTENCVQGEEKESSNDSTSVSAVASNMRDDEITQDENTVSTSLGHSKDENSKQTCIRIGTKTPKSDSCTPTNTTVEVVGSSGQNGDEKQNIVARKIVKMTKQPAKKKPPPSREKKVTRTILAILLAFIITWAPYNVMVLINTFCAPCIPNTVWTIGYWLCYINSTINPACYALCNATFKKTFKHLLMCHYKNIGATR

[2] = target: T2, Muscarinic acetylcholine receptor M2 (Sus scrofa, UniProt P06199)
T2 sequence (P06199 whole entry): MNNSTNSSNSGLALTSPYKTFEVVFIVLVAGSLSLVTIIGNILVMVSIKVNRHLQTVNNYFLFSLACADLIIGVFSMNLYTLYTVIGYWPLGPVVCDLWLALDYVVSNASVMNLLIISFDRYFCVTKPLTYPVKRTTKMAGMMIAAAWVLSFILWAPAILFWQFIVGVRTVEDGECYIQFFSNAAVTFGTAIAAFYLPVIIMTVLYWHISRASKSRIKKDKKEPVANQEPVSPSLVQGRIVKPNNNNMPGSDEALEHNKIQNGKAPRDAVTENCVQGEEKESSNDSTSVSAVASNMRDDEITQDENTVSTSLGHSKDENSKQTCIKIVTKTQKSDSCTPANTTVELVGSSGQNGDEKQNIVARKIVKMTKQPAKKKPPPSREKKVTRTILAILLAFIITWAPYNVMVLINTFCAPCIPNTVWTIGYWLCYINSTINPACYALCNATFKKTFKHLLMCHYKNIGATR

[3] = target: T3, Muscarinic acetylcholine receptor M2 (Rattus norvegicus, UniProt P10980)
T3 sequence (P10980 whole entry): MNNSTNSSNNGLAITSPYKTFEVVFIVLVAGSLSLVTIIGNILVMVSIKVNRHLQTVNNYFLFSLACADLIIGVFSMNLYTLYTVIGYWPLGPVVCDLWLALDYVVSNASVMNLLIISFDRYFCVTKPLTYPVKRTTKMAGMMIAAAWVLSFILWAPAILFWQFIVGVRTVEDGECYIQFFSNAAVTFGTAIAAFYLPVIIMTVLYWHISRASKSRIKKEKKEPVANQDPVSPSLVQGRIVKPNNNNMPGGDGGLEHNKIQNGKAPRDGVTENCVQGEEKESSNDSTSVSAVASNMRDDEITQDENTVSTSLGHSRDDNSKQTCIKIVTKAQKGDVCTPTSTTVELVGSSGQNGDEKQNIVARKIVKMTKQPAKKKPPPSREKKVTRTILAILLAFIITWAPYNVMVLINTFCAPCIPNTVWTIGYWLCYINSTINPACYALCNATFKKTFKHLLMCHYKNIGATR

## CCN(CC)CC1CCCCN1CC(=O)N1c2ccccc2C(=O)Nc2cccnc21 (centres undefined) [(AF-DX 116) 11-[2-(2-Diethylaminomethyl-piperidin-1-yl)-acetyl]-5,11-dihydro-benzo[e]pyrido[3,2-b][1,4]diazepin-6-one]
[1]
  Ki: 99.6 nM and 17.4 nM
[2]
  Ki: 28.8 nM and 21.8 nM
[3]
  Ki: 31.1 nM and 26.9 nM

## CN1CCN(CC(=O)N2c3ccccc3C(=O)Nc3cccnc32)CC1 [11-[(4-methylpiperazin-1-yl)acetyl]-5,11-dihydro-6H-pyrido[2,3-b][1,4]benzodiazepin-6-one]
[2]
  Ki: 80.7 nM and 276 nM
